Test results as given in patent US12208108B2, “Drug targets of delayed aging and human brain diseases” (Texas Tech University System, priority 2016, dated 2025).

Experiments:
Type in all cases: in vivo
[1] = system: BACHD mice; experiment: Behavioral analysis in BACHD mice; conditions: BACHD mice treated for six months vs untreated BACHD mice
Experimental: Huntington's disease. To determine whether Mdivi1 reduces excessive mitochondrial fragmentation and enhances mitochondrial function and synaptic activity in bacterial artificial chromosome transgenic Huntington's disease (BACHD) mice.
(§1) The inventors treated BACHD mice and non-transgenic wild-type mice with Mdivi-1 for six months. Behavioral analysis were performed using rotarod (motor coordination), open field (locomotor activity), Y-maze (working memory) and tail suspension (neurological phenotype) in both treated and untreated BACHD and non-transgenic wild-type (WT) mice. […] The inventors also completed studies on the cell and molecular biology aspects of mitochondria and mutant huntingtin experiments. And also completed experiments on mitochondrial morphology (number and length) dendritic spine density in Mdivi-1-treated and untreated BACHD and non-transgenic WT mice.

[2] = system: BACHD mice; experiment: Gene/protein levels, dendritic spines and mitochondrial morphology in BACHD mice
Experimental: as §1
Mdivi-1-treated BACHD mice had increased dendritic spines in striatal, cortical and hippocampal tissues of Mdivi-1-treated BACHD mice relative Mdivi-1-untreated BACHD mice. Mdivi-1-treated BACHD mice had increased mitochondrial length and reduced the size of mitochondrial size.

[3] = system: wild-type mice; experiment: Morris Water Maze, wild-type mice; conditions: 12-month-old WT mice, 3 weeks, vs control WT mice
Excerpt: (§2) Impact of MitoQ in Wild-type and Transgenic Tau mice: The inventors investigated the protective effects of MitoQ and daily exercise in 12-month-old transgenic Tau (P301L strain) and age-matched wild-type mice. The purpose of this study was to assess the lifestyle factors (antioxidant-enriched diet) and physical exercise (Treadmill) effects on cognitive behavior and AD pathologies (Abeta, P-tau, mitochondrial and synaptic) in AD mice.
(§3) First, the inventors fed wild-type, Tau and APP/PS1 mice with (500 uM of MitoQ in drinking water) and physical exercise (30 minutes on Treadmill) for 3 weeks. The inventors used 12-month-old animals (n=7) per group for all treatments (WT-MitoQ, WT-Treadmill, WT-MitoQ+Treadmill), Tau (Tau-MitoQ, Tau-Treadmill,Tau-MitoQ+Treadmill) and APP/PS1 (APP/PS1-MitoQ, APP/PS1-Treadmill, APP/PS1-MitoQ+Treadmill). Age-matched control mice were used for all genotypes in these studies. After 3-weeks treatment, the cognitive behavior using Morris Water Maze test was assessed.
(§4) The inventors conducted 11 trials (4 training and 7 actual) for latency to find the platform for all groups of mice.

[4] = system: transgenic Tau (P301L strain) mice; experiment: Morris Water Maze, transgenic Tau mice; conditions: 12-month-old Tau mice, 3 weeks
Excerpt: as §2, §3, §4

[5] = treated vs untreated BACHD mice

| SMILES | behavioral phenotype (rotarod, open field, Y-maze, tail suspension) [1] | dendritic spines ([2]; striatal, cortical and hippocampal tissues, treated vs untreated BACHD mice) | mitochondrial length ([2]; treated BACHD mice) | size of mitochondrial size ([2]; treated BACHD mice) | Mitochondrial biogenesis (PGC1a, Nrf1, Nrf2 and TFAM) genes [2, 5] | autophagy (LC3A, LC3B, ATG5, Beclin 1) genes [2, 5] | mRNA and protein levels of fission genes (Drp1 and Fis1) [2, 5] | mitochondrial fusion genes (Mfn1, Mfn2, and Opa1) [2, 5] | mitophagy (PINK1, TERT, BCL2, BNIP3L) genes [2, 5] | synaptic (synaptophysin, PSD95, DARPP32) genes [2, 5] | latency to find the platform ([3]; 500 uM in drinking water) | latency to find the platform ([3]; MitoQ+Treadmill (30 minutes)) | latency to reach platform ([4]; 500 uM in drinking water, vs MitoQ untreated Tau mice) | latency to reach platform ([4]; MitoQ+Treadmill, vs MitoQ+Treadmill untreated Tau mice) |
| --- | --- | --- | --- | --- | --- | --- | --- | --- | --- | --- | --- | --- | --- | --- |
| COc1cc(-n2c(S)nc3ccccc3c2=O)c(Cl)cc1Cl [Mdivi-1, 3-(2,4-Dichloro-5-methoxyphenyl)-2,3-dihydro-2-thioxo-4(1H)-quinazolinone, 3-(2,4-Dichloro-5-methoxyphenyl)-2-sulfanyl-4(3H)-quinazolinone] | significantly improved | increased | increased | reduced | increased | increased | significantly reduced | significantly increased | increased | increased | – | – | – | – |
| COC1=C(OC)C(=O)C(CCCCCCCCCC[P+](c2ccccc2)(c2ccccc2)c2ccccc2)=C(C)C1=O [MitoQ, Phosphonium, [10-(4,5-dimethoxy-2-methyl-3,6-dioxo-1,4-cyclohexadien-1-yl)decyl]triphenyl-, methanesulfonate] | – | – | – | – | – | – | – | – | – | – | did not show any significant difference | significantly faster | much quicker | significantly faster |
